Article PMC6060383, “Synthesis and pharmacological evaluation of novel isoquinoline N-sulphonylhydrazones designed as ROCK inhibitors” (Journal of Enzyme Inhibition and Medicinal Chemistry, 2018)
In brackets after ≈: the same amount, converted by molar mass. Entries after “also recorded” stand apart in the source; their conditions may differ.

Experiments:
[1] = target: T1, ROCK2 human recombinant enzyme (Homo sapiens, UniProt O75116); experiment: ROCK2 inhibition assay (Eurofins-Cerep, phosphorylation of Ulight-RRRSLLE substrate); type: biochemical; conditions: for inhibition at 3 µM: screening concentration 3 μM, average of two experiments; for IC50: human recombinant ROCK2, five-point assay, mean of two experiments
T1 construct: purchased EUROFINS-CEREP France (contract assay, study numbers 100033685 and 100040481); host or cells: Sf21 insect cells
Experimental: (§1) The analysis was performed using software developed at Cerep (Hill software) and GraphPad Prism® 5.0 (GraphPad Software, Inc., San Diego, CA) and validated through comparison with results generated using the SigmaPlot 4.0 software.
(§2) Prior to this assay, we evaluated the solubility of these compounds in water (buffer pH 7.4) to ensure that the inhibition percentages were not influenced by the precipitation of the compounds under test conditions.

[2] = target: T2, ROCK1 human recombinant enzyme (Homo sapiens, UniProt Q13464); experiment: ROCK1 inhibition assay (Eurofins-Cerep, phosphorylation of Ulight-RRRSLLE substrate); type: biochemical; conditions: for inhibition at 3 µM: screening concentration 3 μM, average of two experiments; for IC50: human recombinant ROCK1, five-point assay, mean of two experiments
T2 construct: purchased EUROFINS-CEREP France (contract assay, study numbers 100033685 and 100040481); host or cells: Sf9 insect cells
Experimental: as §1, §2

[3] = Water solubility assay (UV spectrophotometric method); type: physicochemical; conditions: aqueous buffer, thermodynamic from solid, water (buffer pH 7.4), stirring 4 h at 37 °C
Experimental: The solubility assay was performed considering the absorptivity of compounds under ultraviolet spectroscopy as described by Schneider et al.[20] Assay wavelength was determined through λmax characteristic of each compound. Saturated aqueous solutions were prepared (0.8–1.0 mg/mL) and kept under stirring for 4 h at 37 °C. The supernatant was filtered in […] filters and transferred to a quartz cuvette (10 mm) for spectra acquisition. Solubility was determined by linear regression used as Excel graph plots, solutions were prepared by dilutions of the original solution in methanol. Data were collected in triplicate and the mean values were used to create the graph plots. The correlation coefficient (R^2) values were between 0.9982 and 1.
The N-sulphonylhydrazone derivatives 5a–h were evaluated for their ability to inhibit both ROCK1 and ROCK2 isoforms by measuring the phosphorylation of the Ulight-RRRSLLE substrate using human recombinant enzymes expressed in Sf9[23] and Sf21^24 cells, respectively. Prior to this assay, we evaluated the solubility of these compounds in water (buffer pH 7.4) to ensure that the inhibition percentages were not influenced by the precipitation of the compounds under test conditions. The enzymatic assay was initially performed at a screening concentration of 3 μM, which is capable of guaranteeing the solubility of most of the compounds, and the obtained results are shown in Table 2.

[4] = tested on: MDA-MB 231 cells; experiment: Cell-based scratch assay (cell migration); parameters: species or system human; conditions: 10 or 30 μM, 24 h
Experimental: (§3) The human mammary gland/breast epithelial cell line MDA-MB 231 was obtained from the American Type Culture Collection (ATCC® HTB-26™) and this use was approved by the Ethics Committee for Animal Care and Use in Scientific Research from the Federal University of Rio de Janeiro. Cells were routinely grown in RPMI medium containing 10% foetal bovine serum (FBS), 1% L-glutamine and 1% penicillin-streptomycin, in a humidified 5% CO2 atmosphere at 37 °C. Cells were cultured up to 70–100% confluence and then some cultures were treated with the compounds at different concentrations for 24 or 48 h. All cell culture reagents were purchased from Invitrogen (São Paulo, Brazil).
Cells were cultured in 24-well culture plates for 24 h up to 90–100% confluence. Scratched wound lines were created with the help of a 200 μl micropipette tip. […] Images were acquired with an Olympus DP71 digital camera (Olympus, Japan) and the wound area was quantified using Fiji software (based on ImageJ, http://imageJ.nih.gov/ij/) from three different experiments.
The functions of Rho-kinase include the regulation of cellular contraction, motility, morphology, polarity, division, and gene expression. Therefore, we performed a cell-based scratch assay followed by the quantification of the wounded area to analyse whether compounds 5b (LASSBio-2020) and 11 (LASSBio-2065) altered cell migration. […]

[5] = tested on: MDA-MB 231 cells; experiment: Plasma membrane integrity assay (LDH); type: cell-based, human; conditions: 0.1 to 30 µM, 24 and 48 h
Experimental: as §3
To measure plasma membrane integrity, we assayed serum lactate dehydrogenase (LDH) levels and calculated percentages of LDH release to the medium. LDH activity was measured spectrophotometrically using a commercial kit (Doles, Goiás, Brazil). […] Then, 10 μl of NAD were added and absorbance intensities were measured in a microplate reader (FlexStation® 3 Reader, Molecular Devices) at 490 nm. The percentage of LDH release was calculated by ([LDH] sample ×100)/total [LDH]. […]
We also analysed the plasma membrane integrity by measuring the serum lactate dehydrogenase (LDH) levels in the culture medium to confirm the cell viability data. […]

[6] = Chemical stability study (pH 2.0 and pH 7.4 buffers); type: physicochemical; conditions: 37 °C
Experimental: Two microliters ([…]) of a concentrated solution of the compound under examination (40 mM stock solution solubilized in DMSO) and 248 μL of acid (0.2 M potassium chloride and 0.2 M HCl; pH 2.0) or neutral (phosphate dibasic, pH 7.4) buffer were added to a 2 ml Eppendorf microtube. After vortexing, the mixture was placed in a water bath at 37 °C under vigorous stirring for 0, 30, 60, 120, and 240 min. After each reaction, 248 μL of basic buffer (phosphate buffer, pH 8.4) was added to neutralize the pH of the medium in the experiments using acidic buffer. The compound was extracted using 1 ml of acetonitrile followed by vigorous vortexing and freezing of the aqueous phase (−10 °C). The organic phase was separated, filtered, and analysed using an HPLC-PDA (acetonitrile/water […], 0.05% of TFA).
Due to the possible chemical instability of the imine functional group present in the N-sulphonylhydrazone framework, the stability profiles of compounds 5b (LASSBio-2020) and 11 (LASSBio-2065) were determined. The study was conducted under two conditions, pH 2.0 and pH 7.4, to mimic the acidic stomach and the neutral plasma environments, respectively. The compounds were examined in the presence of acid (pH 2) and neutral (pH 7.4) buffers with stirring for 240 min at a controlled temperature (37 °C).

[7] = target: T3, IKK-β (Homo sapiens, UniProt O14920); experiment: IKK-β inhibition screening; type: biochemical; conditions: screening concentration of 10 μM; data not shown
T3 sequence (O14920 1-756): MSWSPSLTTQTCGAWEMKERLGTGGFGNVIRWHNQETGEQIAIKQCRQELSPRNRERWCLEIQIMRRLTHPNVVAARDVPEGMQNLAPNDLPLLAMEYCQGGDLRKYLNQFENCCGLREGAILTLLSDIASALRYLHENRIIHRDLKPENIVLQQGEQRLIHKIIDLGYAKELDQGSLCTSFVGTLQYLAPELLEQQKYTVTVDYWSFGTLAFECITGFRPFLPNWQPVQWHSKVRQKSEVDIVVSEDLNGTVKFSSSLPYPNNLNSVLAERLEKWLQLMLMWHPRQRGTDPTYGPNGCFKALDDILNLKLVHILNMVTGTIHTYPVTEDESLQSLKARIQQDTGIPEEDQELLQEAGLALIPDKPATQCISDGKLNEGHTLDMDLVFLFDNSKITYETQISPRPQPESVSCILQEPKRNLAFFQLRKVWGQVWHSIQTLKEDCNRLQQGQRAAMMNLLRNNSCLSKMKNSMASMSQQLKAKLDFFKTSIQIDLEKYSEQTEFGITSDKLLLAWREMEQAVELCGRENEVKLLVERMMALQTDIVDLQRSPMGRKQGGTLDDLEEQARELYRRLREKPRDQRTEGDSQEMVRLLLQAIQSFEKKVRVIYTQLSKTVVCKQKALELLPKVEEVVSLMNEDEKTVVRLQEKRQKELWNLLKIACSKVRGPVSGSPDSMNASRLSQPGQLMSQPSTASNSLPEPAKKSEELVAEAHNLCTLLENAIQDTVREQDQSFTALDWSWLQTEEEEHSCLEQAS
From the text: Furthermore, considering that 2 (LASSBio-1524) was used in the structural design of this new family of ROCK inhibitors we also investigated the ability of 5b (LASSBio-2020) and 11 (LASSBio-2065) to inhibit IKK-β.

[8] = ROCK inhibition assays, 1 to 50 µM

T2 sequence (Q13464 whole entry): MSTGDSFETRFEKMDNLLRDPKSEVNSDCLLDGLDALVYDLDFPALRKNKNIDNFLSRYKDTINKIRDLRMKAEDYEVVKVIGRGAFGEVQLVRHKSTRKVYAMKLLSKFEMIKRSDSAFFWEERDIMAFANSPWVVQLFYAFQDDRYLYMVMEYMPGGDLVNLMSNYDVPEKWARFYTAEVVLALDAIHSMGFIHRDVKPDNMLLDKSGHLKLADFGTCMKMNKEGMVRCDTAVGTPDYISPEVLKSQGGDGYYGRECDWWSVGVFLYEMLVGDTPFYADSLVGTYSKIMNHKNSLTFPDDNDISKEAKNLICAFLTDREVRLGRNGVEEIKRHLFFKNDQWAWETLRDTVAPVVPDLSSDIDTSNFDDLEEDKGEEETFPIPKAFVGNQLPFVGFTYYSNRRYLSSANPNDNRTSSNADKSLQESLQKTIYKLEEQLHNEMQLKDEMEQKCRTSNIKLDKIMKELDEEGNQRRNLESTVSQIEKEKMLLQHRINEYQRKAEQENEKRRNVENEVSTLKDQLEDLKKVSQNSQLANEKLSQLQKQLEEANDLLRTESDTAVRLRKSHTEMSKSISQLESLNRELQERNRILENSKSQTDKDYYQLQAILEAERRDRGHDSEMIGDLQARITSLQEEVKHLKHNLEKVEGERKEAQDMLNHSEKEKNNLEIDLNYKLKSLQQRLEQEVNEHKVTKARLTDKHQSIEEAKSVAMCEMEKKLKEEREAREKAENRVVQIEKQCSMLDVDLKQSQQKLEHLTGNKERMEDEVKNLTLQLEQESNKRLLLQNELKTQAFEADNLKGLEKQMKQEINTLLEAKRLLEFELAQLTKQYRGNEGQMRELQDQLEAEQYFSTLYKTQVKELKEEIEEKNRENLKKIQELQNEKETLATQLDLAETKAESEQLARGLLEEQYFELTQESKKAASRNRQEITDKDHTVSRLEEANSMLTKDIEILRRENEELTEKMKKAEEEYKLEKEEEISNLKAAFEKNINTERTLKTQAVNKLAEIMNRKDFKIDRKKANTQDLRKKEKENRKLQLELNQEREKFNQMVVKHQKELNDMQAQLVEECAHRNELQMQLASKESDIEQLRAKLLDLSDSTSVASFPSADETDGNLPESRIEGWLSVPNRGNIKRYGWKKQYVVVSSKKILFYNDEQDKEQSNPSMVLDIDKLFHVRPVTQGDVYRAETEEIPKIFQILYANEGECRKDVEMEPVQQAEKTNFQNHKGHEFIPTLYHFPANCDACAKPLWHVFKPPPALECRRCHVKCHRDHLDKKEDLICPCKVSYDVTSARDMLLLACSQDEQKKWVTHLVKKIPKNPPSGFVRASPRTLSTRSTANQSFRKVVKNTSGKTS
T1 sequence (O75116 1-543 limits assumed): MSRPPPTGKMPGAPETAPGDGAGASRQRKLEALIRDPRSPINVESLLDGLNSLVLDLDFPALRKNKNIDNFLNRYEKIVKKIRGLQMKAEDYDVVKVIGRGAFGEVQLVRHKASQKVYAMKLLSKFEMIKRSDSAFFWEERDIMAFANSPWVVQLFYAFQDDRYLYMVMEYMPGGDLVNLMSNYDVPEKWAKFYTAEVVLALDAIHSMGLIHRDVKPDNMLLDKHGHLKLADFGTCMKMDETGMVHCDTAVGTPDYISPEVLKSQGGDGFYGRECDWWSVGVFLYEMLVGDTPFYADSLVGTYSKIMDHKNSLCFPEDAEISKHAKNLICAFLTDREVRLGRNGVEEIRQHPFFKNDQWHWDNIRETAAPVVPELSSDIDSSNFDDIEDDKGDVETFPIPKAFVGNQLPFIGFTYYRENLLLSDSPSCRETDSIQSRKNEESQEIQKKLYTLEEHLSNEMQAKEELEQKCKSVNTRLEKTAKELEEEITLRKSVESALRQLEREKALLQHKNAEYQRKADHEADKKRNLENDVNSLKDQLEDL

| inhibition at 3 µM [1] [%] | inhibition at 3 µM [2] [%] | solubility at 4 h [3] [µM] | melting point [°C] | SMILES | other results |
| --- | --- | --- | --- | --- | --- |
| 0.6 | 4.1 | 5.4 (≈ 1.91 µg/mL) | 165 | CN(C)c1ccc(/C=N/NS(=O)(=O)c2cccc3cnccc23)cc1 [Compound 5a, (E)-N′-(4-(dimethylamino)benzylidene)isoquinoline-5-sulphonohydrazide] | – |
| 8.1 | 1.1 | 26 (≈ 9.27 µg/mL) | 168 | O=[N+]([O-])c1ccc(/C=N/NS(=O)(=O)c2cccc3cnccc23)cc1 [Compound 5c, (E)-N′-(4-nitrobenzylidene)isoquinoline-5-sulphonohydrazide] | – |
| 7.6 | 4.5 | > 64 | 168 | O=S(=O)(N/N=C/c1cccnc1)c1cccc2cnccc12 [Compound 5d, (E)-N′-(pyridin-3-ylmethylene)isoquinoline-5-sulphonohydrazide] | – |
| -9.1 | 4.6 | 4.3 (≈ 1.58 µg/mL) | 173 | CC(=O)Nc1ccc(/C=N/NS(=O)(=O)c2cccc3cnccc23)cc1 [Compound 5e, (E)-N-(4-((2-(isoquinolin-5-ylsulphonyl)hydrazono)methyl)phenyl)acetamide] | – |
| 7.3 | 2.7 | 58 (≈ 20.6 µg/mL) | > 250 | O=S(=O)(N/N=C/c1ccc(B(O)O)cc1)c1cccc2cnccc12 [Compound 5f, (E)-(4-((2-(isoquinolin-5-ylsulphonyl)hydrazono)methyl)phenyl)boronic acid] | – |
| 2.4 | -1.1 | < 0.5 | 166 | O=S(=O)(N/N=C/c1ccc(-c2ccccc2)cc1)c1cccc2cnccc12 [Compound 5g, (E)-N′-([1,1'-biphenyl]-4-ylmethylene)isoquinoline-5-sulphonohydrazide] | – |
| 3.9 | 6.9 | > 84.5 | 186 | Cl.O=S(=O)(N/N=C/C1CCNCC1)c1cccc2cnccc12 [Compound 5h, (E)-N′-(piperidin-4-ylmethylene)isoquinoline-5-sulphonohydrazide hydrochloride] | – |
| – | – | – | – | O=C(N/N=C/c1ccccc1)c1cccc2cnccc12 [Compound 10, (E)-N′-benzylidene isoquinoline-5-carbohydrazide] | ROCK2 inhibition (result in words) [1, 8]: completely inactive; IC50 ([1]; 1 to 50 µM): > 50 µM; ROCK1 inhibition (result in words) [2, 8]: completely inactive; IC50 ([2]; 1 to 50 µM): > 50 µM |
| – | – | – | 108 | CN(/N=C/c1ccccc1)S(=O)(=O)c1cccc2cnccc12 [Compound 11, (E)-N′-benzylidene-N-methylisoquinoline-5-sulphonohydrazide] | effect on cell migration (result in words) [4]: inhibited MDA-MB 231 cell migration; also recorded: effective at inhibiting cell migration; decrease in the IC50 for ROCK2 relative to 5b ([1]; N-methylated 11 versus 5b): ~1.8 fold; IC50 ([1]; 1 to 50 µM): 3.8 µM; LDH levels in culture medium / cytotoxicity in LDH assay (result in words) [5]: not altered; recovery percentage under acidic conditions ([6]; pH 2, after 30 min of incubation): 88%; degradation in neutral medium ([6]; pH 7.4, after 4 h): less than 20%; decrease in the IC50 for ROCK1 relative to 5b ([2]; N-methylated 11 versus 5b): approximately 4 fold; IC50 ([2]; 1 to 50 µM): 3.1 µM; IKK-β inhibition (result in words) [7]: none of these N-sulphonylhydrazone derivatives was able to inhibit IKK-β |
